According to BigSolDB 2.1:

Conditions: in water

Row | Structure (SMILES) | solubility (mole fraction) (293.15 K) | solubility (mole fraction) (298.15 K) | solubility (mole fraction) (303.15 K) | solubility (mole fraction) (308.15 K) | solubility (mole fraction) (313.15 K) | solubility (mole fraction) (318.15 K)
1 | O=C(O)c1cc(O)c(O)c(O)c1 | 0.00117 | 0.00122 | 0.00128 | 0.00131 | 0.00138 | 0.00143
2 | COc1cc(C=O)ccc1O | 0.000989 | 0.00117 | 0.00151 | 0.00182 | 0.0021 | 0.00239
3 | O=C(O)c1ccc(O)c(O)c1 | 0.00212 | 0.00223 | 0.00229 | 0.00238 | 0.00244 | 0.00256
4 | COc1cc(C(=O)O)cc(OC)c1O | 0.000376 | 0.000522 | 0.000646 | 0.000794 | 0.000915 | 0.00105
